Experimental data as given in ChEMBL document CHEMBL3217520, “Histamine H3 receptor ligands with a 3-cyclobutoxy motif: a novel and versatile constraint of the classical 3-propoxy linker” (Medchemcomm, 2010).

How the values were obtained:
[1] = target: T1, Histamine H3 receptor (Homo sapiens, UniProt Q9Y5N1); test: Displacement of [3H]-Nalpha-methylhistamine from human histamine H3 receptor expressed in CHO cells by liquid scintillation counting; type: cell-based
[2] = target: T1, Histamine H3 receptor; test: Inverse agonist activity at human histamine H3 receptor expressed in CHO cells assessed as inhibition of [35S]-GTPgammaS binding by liquid scintillation counting; type: functional, cell-based

T1 sequence (Q9Y5N1 whole entry): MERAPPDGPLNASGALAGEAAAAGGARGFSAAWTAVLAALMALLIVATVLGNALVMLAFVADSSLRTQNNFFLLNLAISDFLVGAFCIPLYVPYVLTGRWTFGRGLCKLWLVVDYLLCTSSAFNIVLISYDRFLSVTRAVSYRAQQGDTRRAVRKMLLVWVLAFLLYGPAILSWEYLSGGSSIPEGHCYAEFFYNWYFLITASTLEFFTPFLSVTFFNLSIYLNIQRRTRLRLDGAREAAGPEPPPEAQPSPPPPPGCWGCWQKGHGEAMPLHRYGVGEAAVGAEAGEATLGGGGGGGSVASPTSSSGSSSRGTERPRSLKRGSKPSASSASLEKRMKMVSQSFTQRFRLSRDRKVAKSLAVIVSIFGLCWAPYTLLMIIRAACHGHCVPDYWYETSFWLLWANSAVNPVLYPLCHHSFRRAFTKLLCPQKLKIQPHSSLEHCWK

Row | SMILES | Ki [1] [nM] | EC50 [2] [nM]
1 | CC1(C)COC(c2ccc(OCCCN3CCCCC3)cc2)=N1 | 158 | 15.8
2 | CC1(C)COC(c2ccc(O[C@H]3C[C@H](N4CCCCC4)C3)cc2)=N1 | 7.94 | 0.631
3 | c1cc(C2=NC3(CCCCC3)CO2)ccc1OCCCN1CCCCC1 | 79.4 | 7.94
4 | c1cc(C2=NC3(CCCCC3)CO2)ccc1O[C@H]1C[C@@H](N2CCCCC2)C1 | 251 | 79.4
5 | c1cc(-c2nc(CN3CCCCC3)co2)ccc1OCCCN1CCCCC1 | 6.31 | 1.58

Now those with a lower Ki [1], led by results:

Row | Ki [1] [nM] | EC50 [2] [nM] | SMILES
6 | 2 | 2 | c1cc(C2=NC3(CCCCC3)CO2)ccc1O[C@H]1C[C@H](N2CCCCC2)C1
7 | 2 | 1.58 | COC(=O)c1oc(-c2ccc(O[C@H]3C[C@H](N4CCCCC4)C3)cc2)nc1C
8 | 1.26 | 3.16 | c1cc(-c2nc(CN3CCCCC3)co2)ccc1O[C@H]1C[C@H](N2CCCCC2)C1
